Source: EP4352072B1, “SYNTHESIS OF A NOVEL GLUCOSE-CONJUGATED METHOTREXATE AND ITS APPLICATION FOR THE TREATMENT AND PREVENTION OF NEOPLASMS” (Uniwersytet Medyczny Im. Piastów Slaskich We Wroclawiu, priority 2021, dated 2022)
Read-outs that look alike come from different tables or passages of the source.

What was measured:
[1] = system: MCF-7 (breast); test: MTT cytotoxicity test, MCF-7; type: cell-based; conditions: Homo sapiens, MCF7, incubation 72 hours, read-out: IC50 values (µM) for individual cell lines MCF-7 (breast)
Description: (§1) Cells were seeded in a 96-well plate at 5-10 x 10^3 cells per well. After 24 hours, the culture medium was decanted and 100 µL of fresh medium was added to the control wells, while the medium with test compounds dissolved in DMSO was added to the test wells. The plates were wrapped in foil and placed in an incubator. After 72 hours of incubation, the medium was decanted and 100 µL of a solution of yellow soluble 3-(4,5-dimethyl-2-thiazolyl)-2,5-diphenyl-2H-tetrazolium bromide (MTT) at a concentration of 0.5-1 mg/mL was added. After 4 hours of incubation, the MTT solution was decanted and 50 µL/well of DMSO was added. After 3 hours, the optical density of the dissolved formazan was analyzed colorimetrically in a BioTek plate reader. […] Since living cells reduce MTT to formazan, the optical density (OD) is highest in the control (C) wells which accounted for 100% of cell viability. Viablity in wells incubated with compound (COMP) was calculated using the formula: X = 100% × OD COMP/OD C [formula] The results reported are the mean value of triplicate cytotoxicity analysis. Cell viability studies using the MTT assay on cell lines of numerous cancers, including breast cancer, colorectal cancer, lung cancer, skin cancer, and bone sarcoma have shown that Glu-MTX is cytotoxic in vitro. […]

[2] = system: DLD-1 (large intestine); test: MTT cytotoxicity test, DLD-1; type: cell-based; conditions: Homo sapiens, incubation 72 hours, read-out: IC50 values (µM) for individual cell lines DLD-1 (large intestine)
Description: as §1

[3] = system: MG-63 (bone sarcoma); test: MTT cytotoxicity test, MG-63; type: cell-based; conditions: Homo sapiens, incubation 72 hours, read-out: IC50 values (µM) for individual cell lines MG-63 (bone sarcoma)
Description: as §1

[4] = system: WI38 (healthy fibroblasts); test: MTT cytotoxicity test, WI38; type: cell-based; conditions: Homo sapiens, WI-38, incubation 72 hours, read-out: IC50 values (µM) for individual cell lines WI38 (healthy fibroblasts)
Description: as §1

[5] = system: MCF-7 breast cancer tumor cells; test: MS analysis of intracellular accumulation, MCF-7; type: cell-based; conditions: human, 2 h, 10 µM
Description: (§2) Cells were seeded in a 6-well plate at 2.5 x 10^5 cells/well and 1 mL/well. When the cells reached 80% confluence, the culture medium was decanted and 1 mL per well of fresh medium to the control wells or 1 mL per well of the test medium with methotrexate at a concentration of 10 µM or a derivative of methotrexate at a concentration of 10 µM, respectively, was added. The plate was wrapped in foil and incubated for 2 hours in an incubator. After this time, the medium was decanted, and each well was washed with 2x1 mL of PBS at room temperature. Then, the plate was placed on ice and 500 µL of a 3:1 mixture of methanol and ultrapure water at -20 °C were applied to each well. The mixture was pipetted several times in each well and collected in a test tube. Then, the procedure was repeated and the prepared samples (each with a volume of 1 mL) were placed in a lowtemperature freezer at -80 °C. The next day, the samples were concentrated in a vacuum concentrator until the samples were completely dry. Prior to analysis, the solvent for MS analysis (Xevo G2 Q-TOF MS) was added to the sample. In figure 7 it can be seen that in case of MTX the surface area of MCF7 tumor cells grown with MTX is about 308 units, and when using a compound according to the invention (identified as 77_1 in Figure 7) it is 525, i.e. about 1.7 times less than in the case of a conjugate. […]

[6] = system: A427 lung cancer tumor cells; test: MS analysis of intracellular accumulation, A427; type: cell-based; conditions: 10 µM, 2 hours incubation
Description: as §2

[7] = male, BALB/ccmdb, mouse, in vivo, iv
Description: The pharmacokinetic profile of the glucose-methotrexate derivative according to the invention (GMTX; chemical formula: C42H58N16O15) was examined in relation to the profile of the classical form of this drug (MTX) after a single intravenous administration into the tail vein. The solutions administered to the animals were prepared on the day of administration.
GMTX was administered to mice intravenously via the tail vein, in a single dose, in the form of solutions (with concentrations ensuring that the animals are dosed appropriately) prepared in 5% DMSO and saline in the 1:20 ratio, in a volume not exceeding 0.2 cm^3/mouse. […]
Mice were administered intravenously (i.v.) GMTX and MTX and blood was collected (to obtain plasma) at 4 time points after injection (1 h, 2 h, 4 h and 8 h), as well as in the so-called time 0 (blood sampling from animals that received neither MTX nor GMTX). […] Another 16 males were administered GMTX at a dose of 400 mg/kg body weight, constituting ½ the MTD of this compound (determined in our study with the code T425/001/2020), and the remaining 8 subjects were not administered either classic MTX nor its glycoconjugate (GMTX). […]
The results of MTX and GMTX concentrations in the plasma of mice were statistically analyzed using the Statistica 13 computer program. The results were expressed as the mean concentration (± standard deviation - SD) at individual time points. […]

[8] = administered intravenously, cited from earlier work
[9] = cited from earlier work

Structure (SMILES): CN(Cc1cnc2nc(N)nc(N)c2n1)c1ccc(C(=O)N[C@@H](CCC(=O)O)C(=O)O)cc1 [MTX, Methotrexate]
- IC50 [1]: 9.61 ± 0.12 µM
- IC50 [2]: 6.85 ± 0.21 µM
- IC50 [3]: 61 ± 0.76 µM
- IC50 [4]: 16.9 ± 1.94 µM
- surface area (MS analysis) [5]: about 308 units
- surface area of MTX, times less than in the case of a conjugate [5]: about 1.7 times
- surface area of MTX, times smaller compared to that of the conjugate [6]: 1.7 times
- eliminated from the systemic circulation (time) [7]: ≤ 4 h
- MTD ([8]; mice of the BALB/c strain, Moura et al. 2011): 94 mg/kg b.w.
- LD50 ([8]; mice): 65 mg/kg b.w.
- bioavailability ([9]; in high doses): 10-20%
- bioavailability ([9]; in low doses): almost complete
- plasma half-life ([9]; in vivo): 5 to 8 h
